One experiment addresses T1, GcoA-F169A (Amycolatopsis sp., UniProt P0DPQ7, F169A/H210Q).
T1 construct: GST (N, cleaved yes); made in house; host or cells: E. coli Rosetta 2 (DE3)
Briefly: Rate of aromatic substrate disappearance by discontinuous HPLC. Format: biochemical. Conditions: GcoA-F169A/GcoB, substrate disappearance over time. As for the experimental part:
To address whether guaiacol and/or syringol would serve as substrates of GcoA-F169A, the disappearance of NADH (UV/vis) and aromatic substrate (HPLC) was monitored over time (FIG. 1). The rates of organic substrate and NADH consumption were robust and the same within error, regardless of whether guaiacol or syringol was used (5.3±0.3 μM guaiacol s^−1 μmol GcoA-F169A^−1, 5.8±0.8 μM NADH s^−1 μmol GcoA-F169A-1; 4.1±0.3 μM syringol s^−1 μmol GcoA-F169A^−1, 5.1±0.8 μM NADH s^−1 μmol GcoA-F169A^−1).
HPLC for product identification and specific activity measurement. HPLC was used to verify the O-demethylated product of GcoA-F169A GcoA/GcoB with guaiacol, syringol, or 3MC. In addition, discontinuous HPLC was used to determine the specific activity of aromatic […] disappearance.
Analyte analysis of the above end-point reactions (100 μM guaiacol, syringol, or 3MC, or 200 μM syringol) was performed on an Agilent 1100 LC system (Agilent Technologies) equipped with a G1315B diode array detector (DAD). Each sample and standard was injected at a volume of 10 μL onto a Symmetry C18 column 5 μm, 4.6×150 mm column (Waters). The column temperature was maintained at 30° C. and the buffers used to separate the analytes of interest was 0.01% TFA in water (A)/acetonitrile (B). The separation was carried out using a gradient program of: (A)=99% and (B)=1% at time t=0 min; (A)=99% and (B)=1% at time t=2 min, (A)=50% and (B)=50% at t=8 min; (A)=1% and (B)=99% at t=8.01 min; (A)=99% and (B)=1% at t=10.01 min; (A)=99% and (B)=1% at t=11 min. The flow rate was held constant at 1.5 mL min^−1, resulting in a run time of 11 minutes. DAD wavelengths of 210 and 325 nm were used for analysis of the analytes of interest. […] Integrated intensities vs [standards] were plotted and the resulting standard curves used to quantify the reactants and products.
For specific activity determination, 300 μM guaiacol, syringol, or 3MC were added from 0.1 M DMSO stocks to air saturated buffer (25 mM HEPES, 50 mM NaCl, pH 7.5), with a final volume of 1 mL. The concentration of analyte was measured via the above HPLC method. […]

The target in a further experiment is T2, GcoA-F169A and GcoB (Amycolatopsis sp., UniProt P0DPQ7, F169A/H210Q).
T2 construct: GST (N, cleaved yes); made in house; host or cells: E. coli Rosetta 2 (DE3)
In words: Uncoupling reactions: H2O2 by Amplex Red/HRP assay referenced to NADH consumed. In kind it is biochemical. On the procedure:
The ^a in Table 3 notes that 0.2 μM GcoA-F169A and GcoB were reacted with 100 μg catalase, 100 or 200 μM NADH, and 100 μM substrate in 25 mM HEPES, 50 mM NaCl, pH 7.5, 25° C., 210 μM O2. Endpoint analyses were done to quantify formaldehyde produced, which was then referenced to NADH consumed. The ^b in Table 3 notes that the same reaction done above was repeated to quantify H2O2 produced using the Amplex Red/HRP assay. The amount of hydrogen peroxide was then referenced to NADH consumed.
Detection of H2O2 via HRP and Amplex Red assay. A colorimetric assay involving horseradish peroxidase (HRP) and Amplex Red was used to quantify H2O2 in the reaction between GcoA-F169A GcoA/GcoB, NADH and guaiacol, syringol, or 3MC.
Detection of H2O2 via horseradish peroxidase (HRP) and Amplex Red assay. The reaction between 100 μM guaiacol or 3MC with 0.2 μM F169A/GcoB and 100 μM NADH in air-saturated buffer (25 mM HEPES, 50 mM NaCl, pH 7.5) was monitored continuously in a quartz cuvette, using the NADH consumption assay described above. The same thing was done for syringol, but with either 100 or 200 μM NADH. When there was no longer any change in the spectra, e.g., the reaction was completed, 100 μL was removed from the cuvette and pipetted into a 96-well microplate. A 5 mL solution containing 50 μL of 10 mM Amplex Red (prepared in DMSO and stored at −20° C.) and 100 μL of 10 U/mL HRP was made up in the above buffer. One hundred μL of this was added to each of the wells with each reaction sample. The plate was incubated in the dark at room temperature for 30 min, at which point the absorbance at 572 nm was recorded by a Varioskan Lux microplate reader (Thermo Scientific). The absorbance was compared to a standard curve with 0-100 μM H2O2 to quantify the amount of peroxide produced in the reactions.

T1 sequence (P0DPQ7 whole entry F169A/H210Q): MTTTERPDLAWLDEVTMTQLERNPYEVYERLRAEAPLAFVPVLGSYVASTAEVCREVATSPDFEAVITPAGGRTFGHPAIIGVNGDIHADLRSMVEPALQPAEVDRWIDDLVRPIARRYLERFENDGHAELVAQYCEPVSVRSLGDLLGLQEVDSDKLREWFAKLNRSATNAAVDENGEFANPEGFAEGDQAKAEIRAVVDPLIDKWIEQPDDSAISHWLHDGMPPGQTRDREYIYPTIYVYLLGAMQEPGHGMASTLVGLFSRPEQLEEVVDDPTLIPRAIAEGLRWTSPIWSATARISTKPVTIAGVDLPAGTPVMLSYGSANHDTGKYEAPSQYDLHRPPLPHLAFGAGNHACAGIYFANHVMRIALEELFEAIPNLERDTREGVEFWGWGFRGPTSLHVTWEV
T2 sequence (P0DPQ7 whole entry F169A/H210Q): as above

Turning to `COc1cccc(O)c1O` [3MC, 3-methoxycatechol], the “Rate of organic substrate consumption (HPLC)” value (from here on “Rate”) on GcoA-F169A is on record as 2.6±0.3 μM s^−1 μmol GcoA-F169A^−1. Besides, the “% H2O2 produced” value at GcoA-F169A and GcoB (100 μM substrate + 100 μM NADH) stood at 17 ± 0.2%.
Turning to `COc1ccccc1O` [guaiacol, 2-methoxyphenol], the “Rate” value on GcoA-F169A is 5.3±0.3 μM s^−1 μmol GcoA-F169A^−1. Besides, on GcoA-F169A and GcoB (100 μM substrate + 100 μM NADH), the “% H2O2 produced” value is 3.7 ± 0.6%.
As for `COc1cccc(OC)c1O` [syringol, 2,6-dimethoxyphenol], the “Rate” value on GcoA-F169A is recorded as 4.1±0.3 μM s^−1 μmol GcoA-F169A^−1. Besides, the “% H2O2 produced” value is 7.4 ± 0.03% on GcoA-F169A and GcoB (100 μM substrate + 100 μM NADH); 7.9 ± 0.5% at GcoA-F169A and GcoB (100 μM substrate + 200 μM NADH).

These data come from US11208642B2, “Microbial syringol utilization” (Alliance for Sustainable Energy, LLC, priority 2018, dated 2021).
